Data taken from patent publication US20230212174A1, “PYRROLO[2,1-F][1,2,4]TRIAZINE DERIVATIVE AND USE THEREOF” (Tencent Technology (Shenzhen) Company Limited, priority 2021, published 2023).

Biological target: T1, TTK (Homo sapiens, UniProt P33981)
T1 sequence (P33981 1-857): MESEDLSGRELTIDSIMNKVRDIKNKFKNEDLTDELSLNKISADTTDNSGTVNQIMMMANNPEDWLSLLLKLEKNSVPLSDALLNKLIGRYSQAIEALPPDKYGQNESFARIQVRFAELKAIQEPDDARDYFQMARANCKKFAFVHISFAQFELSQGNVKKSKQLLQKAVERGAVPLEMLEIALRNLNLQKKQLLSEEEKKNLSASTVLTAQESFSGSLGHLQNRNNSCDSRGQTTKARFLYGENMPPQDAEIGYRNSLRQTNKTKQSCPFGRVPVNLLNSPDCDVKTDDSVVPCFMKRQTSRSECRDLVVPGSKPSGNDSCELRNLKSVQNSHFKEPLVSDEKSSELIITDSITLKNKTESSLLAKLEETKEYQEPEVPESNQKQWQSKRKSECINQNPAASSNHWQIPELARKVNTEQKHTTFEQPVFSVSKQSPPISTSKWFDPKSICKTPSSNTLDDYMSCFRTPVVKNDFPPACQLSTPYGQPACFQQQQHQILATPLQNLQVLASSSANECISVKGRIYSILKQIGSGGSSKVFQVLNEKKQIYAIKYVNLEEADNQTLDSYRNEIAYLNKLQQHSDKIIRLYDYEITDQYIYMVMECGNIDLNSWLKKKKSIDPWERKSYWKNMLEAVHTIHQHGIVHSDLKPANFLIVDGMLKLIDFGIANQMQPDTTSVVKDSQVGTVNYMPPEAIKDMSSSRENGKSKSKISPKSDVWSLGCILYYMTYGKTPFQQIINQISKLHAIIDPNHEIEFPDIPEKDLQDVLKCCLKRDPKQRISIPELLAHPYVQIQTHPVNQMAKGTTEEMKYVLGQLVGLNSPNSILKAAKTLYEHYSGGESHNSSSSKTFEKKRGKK
Assay: TTK inhibitory activity (kinase reaction, Fluorescein-PolyGT substrate, antibody/EDTA stop, Envision read)
Format: biochemical
Conditions: 0.5 nM TTK, 7 uM ATP, 0.2 uM Fluorescein-PolyGT, 28° C., 30 min
Procedure: The experiment aims to detect the inhibitory activity of the compound of the present disclosure on TTK in vitro.
The TTK kinase reaction system was 10 μL, including 0.5 nM TTK, test compound over a concentration gradient, 10 mM MgCl2, 2 mM DTT, 7 uM ATP, 0.2 uM Fluorescein-PolyGT (Fluorescein-Poly Glu:Tyr (4:1)), 0.01% Triton X-100, 0.01% BSA, and 50 mM HEPES pH 7.5. The enzyme and the test compound of the present disclosure were added into a 384-well plate, and then a substrate and ATP were added. Then the system was incubated at a constant temperature of 28° C. 30 min after the reaction, 10 μL of a mixed solution of a corresponding antibody and EDTA was added to terminate the reaction, and incubated for 60 min at a constant temperature of 28° C. The data was read on Envision instrument. A curve was plotted with the Log concentration of the inhibitor as the X axis and the inhibition rate as the Y axis, and IC50 was calculated by Y=Bottom+(Top-Bottom)/(1+(IC50/X)^HillSlope).

SMILES | IC50 [nM]
CCOc1cc(-c2nncn2C)ccc1Nc1ncc2ccc(-c3cnn(C)c3)n2n1 [Compound 18] | 2.1
CCOc1cc(-c2nncn2C)ccc1Nc1nc(NCC(C)(C)C)c2cccn2n1 [Compound 1] | 27
CCOc1cc(-c2nncn2C)ccc1Nc1nc(NC2CCCCC2)c2c(Cl)ccn2n1 [Compound 10] | 5.5
CCOc1cc(-c2nncn2C)ccc1Nc1nc(NC2CCOCC2)c2cccn2n1 [Compound 4] | 4

The next lines start with the values.

IC50 [nM] | SMILES
7.1 | CCOc1cc(-c2nncn2C)ccc1Nc1ncc2ccc(C3CCCC3)n2n1 [Compound 13]
4.2 | CCOc1cc(-c2nncn2C)ccc1Nc1ncc2ccc(C3CCCCC3)n2n1 [Compound 15]
8.7 | CCOc1cc(-c2nncn2C)ccc1Nc1ncc2ccc(C3=CCCC3)n2n1 [Compound 12]
6.3 | CCOc1cc(-c2nncn2C)ccc1Nc1ncc2ccc(C3CCOCC3)n2n1 [Compound 17]
8.9 | CCOc1cc(-c2nncn2C)ccc1Nc1nc(NC2CCCC2)c2cccn2n1 [Compound 3]
